We go through 54 compounds from patent US20120232073A1, “FUSED BICYCLIC PYRIMIDINE DERIVATIVES AND METHODS OF USE THEREOF” (priority 2009, published 2012).

Bounds are passed on as bounds.

For this assay, the target named is T1, human GPR119 (Homo sapiens, UniProt Q8TDV5).
T1 construct: expressed in transfected cells; host or cells: HEK293
T1 sequence (Q8TDV5 1-335): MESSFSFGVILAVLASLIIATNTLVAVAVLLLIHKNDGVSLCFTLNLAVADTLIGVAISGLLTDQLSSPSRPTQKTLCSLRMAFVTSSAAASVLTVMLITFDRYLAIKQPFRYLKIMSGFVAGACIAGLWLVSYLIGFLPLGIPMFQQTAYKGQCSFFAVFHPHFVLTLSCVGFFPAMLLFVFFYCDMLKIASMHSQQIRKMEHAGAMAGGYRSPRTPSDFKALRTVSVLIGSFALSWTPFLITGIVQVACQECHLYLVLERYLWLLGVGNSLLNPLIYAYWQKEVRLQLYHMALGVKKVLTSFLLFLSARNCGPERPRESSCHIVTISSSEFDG
Nature of the assay: cAMP assay (LANCE cAMP kit), activation of GPR119. Format: cell-based. The settings on record: HEK293 cells expressing human GPR119; increase in cAMP levels. As to the method: The ability of illustrative compounds of the invention to activate GPR119 and stimulate increases in cAMP levels was determined using the LANCE™ cAMP kit (Perkin Elmer). HEK293 cells expressing human GPR119 were maintained in culture flasks at 37° C./5% CO2 in DMEM containing 10% fetal bovine serum, 100 U/ml Pen/Strep, and 0.5 mg/ml geneticin. The media was changed to Optimem and cells were incubated overnight at 37° C./5% CO2. The Optimem was then aspirated and the cells were removed from the flasks using room temperature Hank's balanced saline solution (HBSS). The cells were pelleted using centrifugation (1300 rpm, 7 minutes, room temperature), then resuspended in stimulation buffer (HBSS, 0.1% BSA, 5 mM HEPES, 15 μM RO-20) at 2.5×10^6 cells/mL. Alexa Fluor 647-anti cAMP antibody (1:100) was then added to the cell suspension and incubated for 30 minutes. A representative Fused Bicyclic Pyrimidine Derivative (6 μl at 2× concentration) in stimulation buffer containing 2% DMSO were then added to white 384 well Matrix plates. Cell suspension mix (6 μl) was added to each well and incubated with the Fused Bicyclic Pyrimidine Derivative for 30 minutes. A cAMP standard curve was also created in each assay according to the kit protocol. Standard concentrations of cAMP in stimulation buffer (6 μl) were added to white 384 well plates. Subsequently, 6 μl of 1:100 anti-cAMP antibody was added to each well. Following the 30 minute incubation period, 12 μl of detection mix (included in kit) was added to all wells and incubated for 2-3 hours at room temperature. Fluorescence was detected on the plates using an Envision instrument. The level of cAMP in each well is determined by extrapolation from the cAMP standard curve.
A general note: Changes in cAMP serve as a functional read-out for many G protein-coupled receptors.
As a reminder, the EC50 is the concentration needed to bring the measured effect to its halfway point. Read a high EC50 as weaker potency. The compound `CC(C)(C)OC(=O)N1CC2COCC(C1)C2Oc1ncnc2c1ccn2-c1ccc(C#N)cc1F` (stereo not drawn) [Compound 1] yielded an EC50 below 50 nM. Then `CC(C)(C)OC(=O)N1CC2COCC(C1)C2Oc1ncnc2c1ccn2-c1ccc(C#N)cc1F` (stereo not drawn) [Compound 2], with below 50 nM; and `CC(C)OC(=O)N1CC2COCC(C1)C2Oc1ncnc2c1ccn2-c1ccc(C#N)cc1F` (stereo not drawn) [Compound 3], with below 50 nM. As for `CCCOC(=O)N1CC2COCC(C1)C2Oc1ncnc2c1ccn2-c1ccc(C#N)cc1F` (stereo not drawn) [Compound 4], the EC50 was below 50 nM. Compound `CC1(OC(=O)N2CC3COCC(C2)C3Oc2ncnc3c2ccn3-c2ccc(C#N)cc2F)CC1` (stereo not drawn) [Compound 5] had an EC50 below 50 nM. Consider `CC(C)(C)OC(=O)N1CC2COCC(C1)C2Oc1ncnc2c1ccn2-c1ccc(F)cc1F` (stereo not drawn) [Compound 6], for which the EC50 was below 50 nM. `CC(C)(C)OC(=O)N1CC2COCC(C1)C2Oc1ncnc2c1ccn2-c1ccc(F)cc1F` (stereo not drawn) [Compound 7] returned an EC50 below 50 nM.

Consider `CC1(OC(=O)N2CC3COCC(C2)C3Oc2ncnc3c2ccn3-c2ccc(F)cc2F)CC1` (stereo not drawn) [Compound 8], for which the EC50 was below 50 nM. Consider `CC(C)(C)OC(=O)N1CC2COCC(C1)C2Oc1ncnc2c1CCN2c1ccc(F)cc1F` (stereo not drawn) [Compound 9], for which the concentration for a half-maximal effect (EC50) was below 50 nM. Compound `CC(C)(C)OC(=O)N1CC2COCC(C1)C2Oc1ncnc2c1CCN2c1ccc(F)cc1F` (stereo not drawn) [Compound 10] had an EC50 of 100 to 500 nM. Take `CC1(OC(=O)N2CC3COCC(C2)C3Oc2ncnc3c2CCN3c2ccc(F)cc2F)CC1` (stereo not drawn) [Compound 11]: the EC50 was below 50 nM.

Compound `Fc1cnc(N2CC3COCC(C2)C3Oc2ncnc3c2ccn3-c2ccc(F)cc2F)nc1` (stereo not drawn) [Compound 12] registered an EC50 of 50 to 100 nM. With `Fc1ccc(N2CCc3c(OC4C5COCC4CN(c4ncc(Cl)cn4)C5)ncnc32)c(F)c1` (stereo not drawn) [Compound 13] the figure was 100 to 500 nM; with `CC(C)(C)OC(=O)N1CC2COCC(C1)C2Oc1ncnc2c1ccn2-c1c(F)cccc1F` (stereo not drawn) [Compound 14], below 50 nM; with `Cc1c(F)ccc(-n2ccc3c(OC4C5COCC4CN(C(=O)OC(C)(C)C)C5)ncnc32)c1F` (stereo not drawn) [Compound 16], below 50 nM. `Cc1c(F)ccc(-n2ccc3c(OC4C5COCC4CN(C(=O)OC(C)(C)C)C5)ncnc32)c1F` (stereo not drawn) [Compound 17] came in with an EC50 of 50 to 100 nM. As to `Cc1c(F)ccc(-n2ccc3c(OC4C5COCC4CN(C(=O)OC4(C)CC4)C5)ncnc32)c1F` (stereo not drawn) [Compound 18], the EC50 is below 50 nM. For the compound `CC1(OC(=O)N2CC3COCC(C2)C3Oc2ncnc3c2ccn3-c2c(F)cccc2F)CC1` (stereo not drawn) [Compound 19], the concentration giving a half-maximal response (EC50) was below 50 nM. As to `Cc1c(F)ccc(-n2ccc3c(OC4C5COCC4CN(C(=O)OC(C)(C)C)C5)ncnc32)c1C#N` (stereo not drawn) [Compound 20], the concentration for a half-maximal effect (EC50) was 100 to 500 nM. `Cc1c(F)ccc(-n2ccc3c(OC4C5COCC4CN(C(=O)OC(C)(C)C)C5)ncnc32)c1C#N` (stereo not drawn) [Compound 21] displayed an EC50 of 50 to 100 nM. `Cc1c(F)ccc(-n2ccc3c(OC4C5COCC4CN(C(=O)OC4(C)CC4)C5)ncnc32)c1C#N` (stereo not drawn) [Compound 22]: the EC50 was in the range of 50 to 100 nM. `Cc1cccc(-n2ccc3c(OC4C5COCC4CN(C(=O)OC(C)(C)C)C5)ncnc32)c1C#N` (stereo not drawn) [Compound 23]: the EC50 fell in the range of 50 to 100 nM. Consider `Cc1cccc(-n2ccc3c(OC4C5COCC4CN(C(=O)OC4(C)CC4)C5)ncnc32)c1C#N` (stereo not drawn) [Compound 24], for which the EC50 lay within 50 to 100 nM. With `CC(C)(C)OC(=O)N1CC2COCC(C1)C2Oc1ncnc2c1ccn2-c1ccc(S(C)(=O)=O)cc1F` (stereo not drawn) [Compound 25] the figure was 100 to 500 nM; with `CC(C)(C)OC(=O)N1CC2COCC(C1)C2Oc1ncnc2c1ccn2-c1ccc(S(C)(=O)=O)cc1F` (stereo not drawn) [Compound 26], 100 to 500 nM; with `CS(=O)(=O)c1ccc(-n2ccc3c(OC4C5COCC4CN(c4ncc(Cl)cn4)C5)ncnc32)c(F)c1` (stereo not drawn) [Compound 27], below 50 nM.

`CC1(OC(=O)N2CC3COCC(C2)C3Oc2ncnc3c2ccn3-c2ccc(S(C)(=O)=O)cc2F)CC1` (stereo not drawn) [Compound 28]: the EC50 fell in the range of 100 to 500 nM. For `CC(C)c1noc(N2CC3COCC(C2)C3Oc2ncnc3c2ccn3-c2ccc(F)cc2F)n1` (stereo not drawn) [Compound 29], the concentration for a half-maximal effect (EC50) is 100 to 500 nM. Then `CS(=O)(=O)c1ccc(-n2ccc3c(OC4C5COCC4CN(c4ncc(F)cn4)C5)ncnc32)c(F)c1` (stereo not drawn) [Compound 30], with 50 to 100 nM; and `CCCc1cnc(N2CC3COCC(C2)C3Oc2ncnc3c2ccn3-c2ccc(S(C)(=O)=O)cc2F)nc1` (stereo not drawn) [Compound 31], with 50 to 100 nM; and `CC(C)(C)OC(=O)N1CC2COCC(C1)C2Oc1ncnc2c1ccn2-c1c(F)cc(F)cc1F` (stereo not drawn) [Compound 32], with below 50 nM.

As for `CC(C)(C)OC(=O)N1CC2COCC(C1)C2Oc1ncnc2c1ccn2-c1c(F)cc(F)cc1F` (stereo not drawn) [Compound 33], the EC50 was below 50 nM. Compound `CS(=O)(=O)c1ccc(-n2cnc3c(OC4C5COCC4CN(c4ncc(Cl)cn4)C5)ncnc32)c(F)c1` (stereo not drawn) [Compound 34] registered an EC50 of 500 to 1000 nM. With `CC1(OC(=O)N2CC3COCC(C2)C3Oc2ncnc3c2ncn3-c2ccc(C#N)cc2F)CC1` (stereo not drawn) [Compound 35] the figure was 50 to 100 nM; with `CC1(OC(=O)N2CC3COCC(C2)C3Oc2ncnc3c2cnn3-c2ccc(C#N)cc2F)CC1` (stereo not drawn) [Compound 36], below 50 nM; with `CC1(OC(=O)N2CC3COCC(C2)C3Oc2ncnc3c2cnn3-c2ccc(C#N)cc2F)CC1` (stereo not drawn) [Compound 37], below 50 nM. As for `CC1OC(C)C2CN(C(=O)OC3(C)CC3)CC1C2Oc1ncnc2c1cnn2-c1ccc(C#N)cc1F` (stereo not drawn) [Compound 38], the EC50 is below 50 nM. With `CC1OC(C)C2CN(C(=O)OC3(C)CC3)CC1C2Oc1ncnc2c1cnn2-c1ccc(C#N)cc1F` (stereo not drawn) [Compound 39] the figure was 100 to 500 nM; with `CC1(OC(=O)N2CC3COCC(C2)C3Oc2ncnc3c2cnn3-c2ccc(C#N)cc2Cl)CC1` (stereo not drawn) [Compound 40], below 50 nM. In turn, `CC1(OC(=O)N2CC3COCC(C2)C3Oc2ncnc3c2[nH]c(=O)n3-c2ccc(C#N)cc2F)CC1` (stereo not drawn) [Compound 41] registered an EC50 of 500 to 1000 nM.

For `Cc1nc2c(OC3C4COCC3CN(C(=O)OC3(C)CC3)C4)ncnc2n1-c1ccc(C#N)cc1F` (stereo not drawn) [Compound 42], the 50% effective concentration (EC50) lay in the range of 500 to 1000 nM. `CC1(OC(=O)N2CC3COCC(C2)C3Oc2ncnc3c2ncn3-c2ccc(C#N)cc2Cl)CC1` (stereo not drawn) [Compound 43] showed an EC50 of 100 to 500 nM. With `CC(C)OC(=O)N1CC2COCC(C1)C2Oc1ncnc2c1ncn2-c1ccc(C#N)cc1Cl` (stereo not drawn) [Compound 44] the figure was 100 to 500 nM. On to `CC1(OC(=O)N2CC3COCC(C2)C3Oc2ncnc3c2cnn3-c2ccc(F)cc2F)CC1` (stereo not drawn) [Compound 45], for which the EC50 lay in the range of 100 to 500 nM. Compound `CC1(OC(=O)N2CC3COCC(C2)C3Oc2ncnc3c2cnn3-c2ccc(F)cc2F)CC1` (stereo not drawn) [Compound 46] displayed an EC50 of 100 to 500 nM.

In turn, `CC1(OC(=O)N2CC3COCC(C2)C3Oc2ncnc3c2ncn3-c2ccc(Br)cc2F)CC1` (stereo not drawn) [Compound 47] yielded an EC50 of 100 to 500 nM.

As to `Cn1cc(-c2ccc(-n3ncc4c(OC5C6COCC5CN(C(=O)OC5(C)CC5)C6)ncnc43)c(F)c2)cn1` (stereo not drawn) [Compound 48], the half-maximal effective concentration (EC50) lay in the range of 100 to 500 nM. Then `CC1(OC(=O)N2CC3COCC(C2)C3Oc2ncnc3c2cnn3-c2ccc(-c3ncco3)cc2F)CC1` (stereo not drawn) [Compound 49], with 100 to 500 nM; and `CC1(OC(=O)N2CC3COCC(C2)C3Oc2ncnc3c2cnn3-c2ccc(-c3cscn3)cc2F)CC1` (stereo not drawn) [Compound 50], with 100 to 500 nM; and `CC(C)(C)OC(=O)N1CC2COCC(C1)C2Oc1ncnc2c1nnn2-c1ccc(C#N)cc1Cl` (stereo not drawn) [Compound 51], with 100 to 500 nM.

Consider `CC1(OC(=O)N2CC3COCC(C2)C3Oc2ncnc3c2nnn3-c2ccc(C#N)cc2Cl)CC1` (stereo not drawn) [Compound 52], for which the EC50 is 50 to 100 nM.

In turn, `CC(C)(C)OC(=O)N1CC2COCC(C1)C2Oc1ncnc2c1OCCN2c1ccc(C#N)cc1F` (stereo not drawn) [Compound 53] displayed an EC50 of 100 to 500 nM. In turn, `CC1(OC(=O)N2CC3COCC(C2)C3Oc2ncnc3c2OCCN3c2ccc(C#N)cc2F)CC1` (stereo not drawn) [Compound 54] yielded an EC50 of 100 to 500 nM. With `CC(C)OC(=O)N1CC2COCC(C1)C2Oc1ncnc2c1OCCN2c1ccc(C#N)cc1F` (stereo not drawn) [Compound 55], the 50% effective concentration (EC50) is 100 to 500 nM.
